Data as given in ChEMBL document CHEMBL3616471, “Synthesis and in vitro antitumor evaluation of betulin acid ester derivatives as novel apoptosis inducers” (Eur J Med Chem, 2015).
Activity calls are given as the source filed them. The rule behind the calls is not given here.

What was measured:
[1] = system: A-375; experiment: Cytotoxicity against human A375 cells after 72 hrs by MTT assay; assay type: functional, cell-based
[2] = system: A-375; experiment: Selectivity index, ratio of IC50 for mouse NIH/3T3 cells to IC50 for human A375 cells; assay type: functional
[3] = system: MCF7; experiment: Selectivity index, ratio of IC50 for mouse NIH/3T3 cells to IC50 for human MCF7 cells; assay type: functional
[4] = system: MCF7; experiment: Cytotoxicity against human MCF7 cells after 72 hrs by MTT assay; assay type: functional, cell-based
[5] = system: PC-3; experiment: Selectivity index, ratio of IC50 for mouse NIH/3T3 cells to IC50 for human PC3 cells; assay type: functional
[6] = system: MGC-803; experiment: Induction of apoptosis in human MGC803 cells assessed as cell budding at 5 uM after 12 to 48 hrs using acridine orange/ethidium bromide staining by fluorescence microscopic analysis; assay type: functional, cell-based
[7] = system: A-375; experiment: Ratio of betulin IC50 to compound IC50 for human A375 cells; assay type: functional
[8] = system: MGC-803; experiment: Induction of apoptosis in human MGC803 cells assessed as apoptotic bodies at 5 uM after 12 to 48 hrs using Hoechst 33258 staining by fluorescence microscopic analysis; assay type: functional, cell-based
[9] = system: MGC-803; experiment: Induction of apoptosis in human MGC803 cells assessed as pyknosis at 5 uM after 12 to 48 hrs using acridine orange/ethidium bromide staining by fluorescence microscopic analysis; assay type: functional, cell-based
[10] = system: MCF7; experiment: Ratio of betulin IC50 to compound IC50 for human MCF7 cells; assay type: functional
[11] = system: Bcap37; experiment: Ratio of betulin IC50 to compound IC50 for human Bcap37 cells; assay type: functional
[12] = system: MGC-803; experiment: Induction of apoptosis in human MGC803 cells assessed as formation of nicks in DNA at 5 uM after 48 hrs by TUNNEL assay; assay type: functional, cell-based
[13] = system: PC-3; experiment: Cytotoxicity against human PC3 cells after 72 hrs by MTT assay; assay type: functional, cell-based
[14] = system: MGC-803; experiment: Cytotoxicity against human MGC803 cells after 72 hrs by MTT assay; assay type: functional, cell-based
[15] = system: MGC-803; experiment: Induction of apoptosis in human MGC803 cells assessed as membrane blebbing at 5 uM after 12 to 48 hrs using acridine orange/ethidium bromide staining by fluorescence microscopic analysis; assay type: functional, cell-based
[16] = system: MGC-803; experiment: Selectivity index, ratio of IC50 for mouse NIH/3T3 cells to IC50 for human MGC803 cells; assay type: functional
[17] = system: MGC-803; experiment: Induction of apoptosis in human MGC803 cells assessed as apoptosis ratio at 10 uM using annexin-V and propidium iodide staining by flow cytometry; assay type: functional, cell-based; conditions: TDE = time-dependent effect
[18] = system: Bcap37; experiment: Selectivity index, ratio of IC50 for mouse NIH/3T3 cells to IC50 for human Bcap37 cells; assay type: functional
[19] = system: MGC-803; experiment: Induction of apoptosis in human MGC803 cells assessed as apoptosis ratio at 10 uM after 36 hrs using annexin-V and propidium iodide staining by flow cytometry; assay type: functional
[20] = system: MGC-803; experiment: Ratio of betulin IC50 to compound IC50 for human MGC803 cells; assay type: functional
[21] = system: MGC-803; experiment: Induction of apoptosis in human MGC803 cells assessed as chromatin condensation at 5 uM after 12 to 48 hrs using Hoechst 33258 staining by fluorescence microscopic analysis; assay type: functional, cell-based
[22] = Cytotoxicity against mouse NIH/3T3 cells after 72 hrs by MTT assay; assay type: cell-based; conditions: nih3t3, 72 h
[23] = system: PC-3; experiment: Ratio of betulin IC50 to compound IC50 for human PC3 cells; assay type: functional
[24] = system: Bcap37; experiment: Cytotoxicity against human Bcap37 cells after 72 hrs by MTT assay; assay type: functional, cell-based
[25] = system: MGC-803; experiment: Induction of apoptosis in human MGC803 cells assessed as apoptotic cells at 5 uM after 12 to 48 hrs using Hoechst 33258 staining by fluorescence microscopic analysis; assay type: functional, cell-based

## C=C(C)[C@@H]1CC[C@]2(COC(=O)CCC(=O)N3CCCCC3)CC[C@]3(C)[C@H](CC[C@@H]4[C@@]5(C)CC[C@H](O)C(C)(C)[C@@H]5CC[C@]43C)[C@@H]12
[1]
  Activity: Dose-dependent effect
[1]; A-375, 72 h
  IC50: 7.5 µM
[2]
  Ratio IC50: 4.72
[3]
  Ratio IC50: 6.8
[4]
  Activity: Dose-dependent effect
[4]; MCF7, 72 h
  IC50: 5.2 µM
[5]
  Ratio IC50: 7.86
[6]
  Activity: Active
[7]
  Ratio IC50: 4
[8]
  Activity: Active
[9]
  Activity: Active
[10]
  Ratio IC50: 4
[11]
  Ratio IC50: 4
[12]
  Activity: Active
[13]
  Activity: Dose-dependent effect
[13]; PC-3, 72 h
  IC50: 4.5 µM
[14]
  Activity: Dose-dependent effect
[14]; MGC-803, 72 h
  IC50: 4.3 µM
[15]
  Activity: Active
[16]
  Ratio IC50: 8.23
[17]
  Activity: tde
[18]
  Ratio IC50: 6.81
[19]
  Activity: 31.11%
[20]
  Ratio IC50: 4
[21]
  Activity: Active
[22]
  Activity: Non-toxic
[23]
  Ratio IC50: 4
[24]
  Activity: Dose-dependent effect
[24]; Bcap37, 72 h
  IC50: 5.2 µM
[25]
  Activity: Active
